The record followed here is patent publication US20240383953A1, “NOVEL NAN[…] NANOG PRION-LIKE REPEATS” (BAYLOR COLLEGE OF MEDICINE, priority 2021, published 2024).

Residues, ends and D or L forms follow the SMILES beside them.

The first data set can be described thus: WR peptide solubility (supernatant to pellet ratio after centrifugation). The class given is physicochemical. Particulars: 0.1 and 0.2 mg/mL. The method, then:
FIGS. 7A-7H provide data and illustrations related to the fibrillation propensities of NANOG WR-derived peptides. FIG. 7A illustrates NANOG domain organization and the human and mouse NANOG WR-derived peptides used in Example 2. […] Right panels show aggregation kinetics for peptides 1-3 w (top) and 1-4 w (bottom) after 1 min equilibration. Similar results were obtained from two independent experiments. […] Similar results were obtained from two independent experiments. […] Similar results were obtained from two independent experiments. […] Similar results were obtained from two independent preparations. […]
(§1) Amino acids of the synthesized peptides were classified into aromatic, polar, charged and structure breakers (FIG. 7B). Applicant observed a striking degree of correlation between amino acid type distribution, and the peptide's solubilities and aggregation propensities, as monitored by Thioflavin T (ThT, amyloid binding dye) aggregation kinetics assay (FIGS. 7B-7D). Formation of β-sheet fibrils were confirmed by CD spectroscopy and Transmission Electron Microscopy. Hydrophobic/aromatic residues as well as polar residues such as Gln and Asn are commonly found in amyloid or prion-like domains. On the other hand, charged and ‘structure breaker’ residues such as Gly and Pro contribute to the peptide's higher solubility. […] Aggregation kinetics was rapid; 1-4w reached maximal ThT fluorescence within 2-3 min and 1-3w ˜20 min (FIG. 7D).
As to `C[C@@H](O)[C@H](NC(=O)[C@H](CO)NC(=O)[C@H](CC(N)=O)NC(=O)[C@H](CC(N)=O)NC(=O)[C@H](Cc1c[nH]c2ccccc12)NC(=O)[C@@H](NC(=O)[C@H](CCC(N)=O)NC(=O)[C@H](CC(N)=O)NC(=O)[C@H](CO)NC(=O)[C@@H](N)Cc1c[nH]c2ccccc12)[C@@H](C)O)C(=O)N[C@@H](CCCCN)C(=O)O` [1-2w] (H-WSNQTWNNSTK-OH; N-terminus and C-terminus assumed), the peptide solubility entry is given as “very soluble”.
On the same count and under the same terms, the entry for `C[C@@H](O)[C@H](NC(=O)[C@H](CCC(N)=O)NC(=O)[C@H](CC(N)=O)NC(=O)[C@H](CO)NC(=O)[C@H](Cc1c[nH]c2ccccc12)NC(=O)[C@@H](NC(=O)[C@H](CO)NC(=O)[C@H](CC(N)=O)NC(=O)[C@H](CC(N)=O)NC(=O)[C@H](Cc1c[nH]c2ccccc12)NC(=O)[C@@H](NC(=O)[C@H](CCC(N)=O)NC(=O)[C@H](CC(N)=O)NC(=O)[C@H](CO)NC(=O)[C@@H](N)Cc1c[nH]c2ccccc12)[C@@H](C)O)[C@@H](C)O)C(=O)N[C@@H](CCCNC(=N)N)C(=O)N[C@@H](CCCNC(=N)N)C(=O)N[C@@H](CCCNC(=N)N)C(=O)N[C@@H](CCCNC(=N)N)C(=O)N[C@@H](CCCNC(=N)N)C(=O)N[C@@H](CCCNC(=N)N)C(=O)N[C@@H](CCCCN)C(=O)N[C@@H](CCCCN)C(=O)N[C@@H](CS)C(=O)O` [1-3wRRK] (H-WSNQTWNNSTWSNQTRRRRRRKKC-OH; N-terminus and C-terminus assumed) is “very soluble”.
On the same count and under the same terms, the entry for `C[C@@H](O)[C@H](NC(=O)[C@H](CCC(N)=O)NC(=O)[C@H](CC(N)=O)NC(=O)[C@H](CO)NC(=O)[C@H](Cc1c[nH]c2ccccc12)NC(=O)[C@@H](NC(=O)[C@H](CO)NC(=O)[C@H](CC(N)=O)NC(=O)[C@H](CC(N)=O)NC(=O)[C@H](Cc1c[nH]c2ccccc12)NC(=O)[C@@H](NC(=O)[C@H](CCC(N)=O)NC(=O)[C@H](CC(N)=O)NC(=O)[C@H](CO)NC(=O)[C@@H](N)Cc1c[nH]c2ccccc12)[C@@H](C)O)[C@@H](C)O)C(=O)N[C@@H](CCCCN)C(=O)O` [1-3w] (H-WSNQTWNNSTWSNQTK-OH; N-terminus and C-terminus assumed) is “more insoluble”; for `CC[C@H](C)[C@H](NC(=O)[C@H](CC(N)=O)NC(=O)[C@H](CCC(N)=O)NC(=O)[C@@H](NC(=O)[C@H](CCC(N)=O)NC(=O)[C@H](CC(N)=O)NC(=O)[C@H](CO)NC(=O)[C@H](Cc1c[nH]c2ccccc12)NC(=O)[C@@H](NC(=O)[C@H](CO)NC(=O)[C@H](CC(N)=O)NC(=O)[C@H](CC(N)=O)NC(=O)[C@H](Cc1c[nH]c2ccccc12)NC(=O)[C@@H](NC(=O)[C@H](CCC(N)=O)NC(=O)[C@H](CC(N)=O)NC(=O)[C@H](CO)NC(=O)[C@@H](N)Cc1c[nH]c2ccccc12)[C@@H](C)O)[C@@H](C)O)[C@@H](C)O)C(=O)N[C@@H](CCC(N)=O)C(=O)N[C@@H](CO)C(=O)N[C@@H](Cc1c[nH]c2ccccc12)C(=O)N[C@@H](CO)C(=O)N[C@@H](CC(N)=O)C(=O)N[C@@H](Cc1c[nH]cn1)C(=O)N[C@@H](CO)C(=O)N[C@@H](CCCCN)C(=O)O` [1-4w] (H-WSNQTWNNSTWSNQTQNIQSWSNHSK-OH; N-terminus and C-terminus assumed) it is “more insoluble”; for `CC[C@H](C)[C@H](NC(=O)[C@H](CC(N)=O)NC(=O)[C@H](CCC(N)=O)NC(=O)[C@@H](NC(=O)[C@H](CCC(N)=O)NC(=O)[C@H](CC(N)=O)NC(=O)[C@H](CO)NC(=O)[C@H](C)NC(=O)[C@@H](NC(=O)[C@H](CO)NC(=O)[C@H](CC(N)=O)NC(=O)[C@H](CC(N)=O)NC(=O)[C@H](C)NC(=O)[C@@H](NC(=O)[C@H](CCC(N)=O)NC(=O)[C@H](CC(N)=O)NC(=O)[C@H](CO)NC(=O)[C@H](C)N)[C@@H](C)O)[C@@H](C)O)[C@@H](C)O)C(=O)N[C@@H](CCC(N)=O)C(=O)N[C@@H](CO)C(=O)N[C@@H](Cc1c[nH]c2ccccc12)C(=O)N[C@@H](CO)C(=O)N[C@@H](CC(N)=O)C(=O)N[C@@H](Cc1c[nH]cn1)C(=O)N[C@@H](CO)C(=O)N[C@@H](CCCCN)C(=O)O` [1-4wa] (H-ASNQTANNSTASNQTQNIQSWSNHSK-OH; N-terminus and C-terminus assumed) it is “increased solubility”.
`C[C@@H](O)[C@H](NC(=O)[C@H](CCC(N)=O)NC(=O)[C@H](CC(N)=O)NC(=O)[C@H](CO)NC(=O)[C@@H](N)Cc1c[nH]c2ccccc12)C(=O)N[C@@H](CCCCN)C(=O)O` [1w, WSNQTK] (H-WSNQTK-OH; N-terminus and C-terminus assumed): the peptide solubility entry is listed as “very soluble”.
For `C[C@@H](O)[C@H](NC(=O)[C@H](CCC(N)=O)NC(=O)[C@H](CC(N)=O)NC(=O)[C@H](CC(N)=O)NC(=O)[C@H](Cc1c[nH]c2ccccc12)NC(=O)[C@@H](NC(=O)[C@@H]1CCCN1C(=O)[C@H](CC(N)=O)NC(=O)[C@@H](NC(=O)[C@H](Cc1c[nH]c2ccccc12)NC(=O)[C@@H](NC(=O)[C@H](CCC(N)=O)NC(=O)[C@H](CO)NC(=O)[C@H](CO)NC(=O)[C@H](Cc1c[nH]c2ccccc12)NC(=O)[C@@H](NC(=O)[C@@H]1CCCN1C(=O)[C@H](CC(N)=O)NC(=O)[C@@H](NC(=O)[C@H](Cc1c[nH]c2ccccc12)NC(=O)[C@@H](NC(=O)[C@H](CCC(N)=O)NC(=O)[C@H](CO)NC(=O)CNC(=O)[C@@H](N)Cc1c[nH]c2ccccc12)[C@@H](C)O)[C@@H](C)O)[C@@H](C)O)[C@@H](C)O)[C@@H](C)O)[C@@H](C)O)C(=O)N[C@@H](CCCCN)C(=O)O` [m1-5w] (H-WGSQTWTNPTWSSQTWTNPTWNNQTK-OH; N-terminus and C-terminus assumed), the peptide solubility result is on record as “relatively higher solubility”.
Still for that read-out and setting: the value for `C[C@H](NC(=O)[C@H](CCC(N)=O)NC(=O)[C@H](CO)NC(=O)[C@H](CO)NC(=O)[C@H](Cc1c[nH]c2ccccc12)NC(=O)[C@@H](NC(=O)[C@@H]1CCCN1C(=O)[C@H](CC(N)=O)NC(=O)[C@@H](NC(=O)[C@@H](N)Cc1c[nH]c2ccccc12)[C@@H](C)O)[C@@H](C)O)C(=O)N[C@@H](Cc1c[nH]c2ccccc12)C(=O)N[C@H](C(=O)N[C@@H](C)C(=O)N[C@@H](CCC(N)=O)C(=O)N[C@@H](CO)C(=O)N[C@@H](Cc1c[nH]c2ccccc12)C(=O)N[C@@H](CC(N)=O)C(=O)NCC(=O)N[C@@H](CCC(N)=O)C(=O)N1CCC[C@H]1C(=O)N[C@@H](Cc1c[nH]c2ccccc12)C(=O)N[C@@H](CC(N)=O)C(=O)N[C@@H](C)C(=O)N[C@@H](C)C(=O)N1CCC[C@H]1C(=O)N[C@@H](CCCCN)C(=O)O)[C@@H](C)O` [m6-10w] (H-WTNPTWSSQAWTAQSWNGQPWNAAPK-OH; N-terminus and C-terminus assumed) was “relatively higher solubility”; that for “WCTQSWNNQAWNSPFYNCGEESK [6-8w, human C-terminal WR repeats]” was “relatively higher solubility”.
As to “WNTQTWCTQSWNNQAWNSPFYNCGEESK [5-8w, human C-terminal WR repeats]”, the peptide solubility result was “relatively higher solubility”.

The nature of another data set: WR peptide aggregation kinetics by ThT fluorescence. The class given is physicochemical.
Settings: not given
The method, then:
FIGS. 7A-7H provide data and illustrations related to the fibrillation propensities of NANOG WR-derived peptides. FIG. 7A illustrates NANOG domain organization and the human and mouse NANOG WR-derived peptides used in Example 2. […] Right panels show aggregation kinetics for peptides 1-3 w (top) and 1-4 w (bottom) after 1 min equilibration. Similar results were obtained from two independent experiments. […] Similar results were obtained from two independent experiments. […] Similar results were obtained from two independent experiments. […] Similar results were obtained from two independent preparations.
as §1, with “domains.” for “domains. On the other hand, charged and ‘structure breaker’ residues such as Gly and Pro contribute to the peptide's higher solubility.”
Turning to “WCTQSWNNQAWNSPFYNCGEESK [6-8w, human C-terminal WR repeats]”, the “aggregation kinetics” value is “slower aggregation kinetics”.
Still for that read-out and setting: the value for “WNTQTWCTQSWNNQAWNSPFYNCGEESK [5-8w, human C-terminal WR repeats]” was “slower aggregation kinetics”.
